Data reported in publication PMC11023993, “Piperine, quercetin, and curcumin identified as promising natural products for topical treatment of cutaneous leishmaniasis” (Parasitology Research, 2024).
Read-outs that look alike come from different tables or passages of the source.

What was measured:
[1] = tested on: intracellular amastigotes of L. braziliensis; test: In vitro leishmanicidal activity against intracellular amastigotes in infected U-937 macrophages (flow cytometry); assay type: cell-based, Leishmania braziliensis; settings: for EC50: Leishmania braziliensis
Description: Infective L. braziliensis (MHOM/CO/88/UA301-eGFP) (Pulido et al. [2012]) were cultured in Novy-MacNeal-Nicolle (NNN) biphasic medium at 26 °C for 3 passages maximum. U-937 cells, prepared as described in the previous section, were adjusted to approximately 3 × 10^5 cells per mL of supplemented RPMI 1640 medium containing […] of PMA to induce cell adherence. One mL was dispensed into each well of a 24-well plate and platters were incubated at 37 °C in % CO2, 95% humidity atmosphere for 72 h. Then, adherent cells were infected with fluorescent promastigotes of L. braziliensis in a 15:1 parasite to cell ratio. Plates were incubated again at 34 °C and % CO2, 95% humidity atmosphere. After 24 h, non-phagocytosed parasites were washed by pipetting phosphate buffered solution (PBS) in the plate at room temperature and 500 µL of fresh complete RPMI 1640 medium was added. Then, 500 µL of each serial dilution of QUE, PIP, CUR, and amphotericin B was added to each well and plates were incubated at 34 °C with % CO2, 95% humidity atmosphere. The EC50, the median effective concentration to induce […] killing of the intracellular amastigotes in infected cells, was measured by Flow cytometry at 488 nm of excitation and 525 nm of emission. After 48 h of incubation, cells were harvested with cold dissociation buffer (1x PBS with 2% EDTA) and the harvested cells were washed with buffer (1 × PBS with 2% FBS), and results were analyzed by FlowJo 10. The EC50 was determined with a non-lineal regression using Prism GraphPad 10.
The LC50 and the EC50 were calculated by Probit analysis using GraphPad Prism 10 (San Diego, CA, USA). Both cytotoxicity and leishmanicidal activity were defined by ranges of values of LC50 and EC50 in terms of high, moderate, or low as follows: high cytotoxicity for LC50 values < 100 µM, moderate cytotoxicity for LC50 values > 100 µM but < 200 µM, and low cytotoxicity for LC50 values > 200 µM. […] In addition, the cytotoxicity in U937 macrophages was correlated with the leishmanicidal activity by calculating the Selectivity Index (SI), using the equation: SI = LC50/EC50 (Indrayanto et al. [2021]).

[2] = tested on: L. braziliensis-induced cutaneous leishmaniasis ulcers; test: Histopathological analysis (H-E) of healed ulcers from treated hamsters; assay type: in vivo, golden hamsters (Mesocricetus auratus); design: key to Dermis: oedema (grade) / Dermis: granulomatous inflammation (grade) / Epidermis: orthokeratotic hyperkeratosis (grade) / Epidermis: spongiosis (grade) / Epidermis: ulcer (grade) / Dermis: neovascularization (grade) / Dermis: fibroplasia (grade) / Dermis: leukocytic infiltrate (grade): 0, absent; 1, mild; 2, mild to moderate; 3, moderate; 4, moderate to severe; 5, severe
Description: The changes were analyzed under a standard optical microscope.

[3] = tested on: L. major; design: method as in Almadani et al. [2021]; settings: oral 50 mg/kg for 28 consecutive days; ref Almadani et al. [2021]; cited from earlier work
[4] = healed ulcer after topical treatment

## O=c1c(O)c(-c2ccc(O)c(O)c2)oc2cc(O)cc(O)c12 [Quercetin, quercetin]
[1]; LC50 U-937 / EC50 L. braziliensis amastigotes
  SI (Selectivity Index = LC50/EC50): > 20.6
[1]; U-937, amastigote stage of L. braziliensis, read-out: in vitro antileishmanial activity (EC50 in mass units)
  EC50: 9.7 ± 0.6 µg/mL
[1]; intracellular amastigotes of L. braziliensis in U-937 macrophages, 48 h, read-out: EC50 (Median Effective Concentration)
  EC50: 32 ± 2 µM
[1]; class by EC50 on intracellular amastigotes of L. braziliensis
  Leishmanicidal activity: High (high activity corresponds to EC50 values < 50 µM)
[2]; H-E stain, healed skin after topical treatment
  granulomas and amastigotes in healed skin: No amastigotes are observed
[2]; [4]
  Dermis: fibroplasia (grade): 3
  Dermis: granulomatous inflammation (grade): 0
  Dermis: leukocytic infiltrate (grade): 3
  Dermis: neovascularization (grade): 2
  Dermis: oedema (grade): 2
  Epidermis: orthokeratotic hyperkeratosis (grade): 2
  Epidermis: spongiosis (grade): 2
  Epidermis: ulcer (grade): 0
[3]
  histopathological analysis of tissue sections: reduction in inflammatory cell count, an increase in fibroblasts, and enhanced collagen deposition
